Data taken from patent US20260355142A1, “AMORPHOUS OTE[…] COMPOSITIONS AND USES THEREOF AND DOSAGE REGIMENS FOR OTENAPROXESUL” (ANTIBE THERAPEUTICS INC., priority 2022, published 2026).
Values after ≈ are worked out from the molar mass of the structure shown. Each block holds one compound with its values, some of them ahead of it.

How the values were obtained:
[1] = Phase 1 SAD clinical trial, plasma naproxen (M25) levels; type: in vivo, human; details: single oral dose of about 1500 mg to 2000 mg
Procedure: Otenaproxesul (crystalline form) was orally administered at a range of doses to healthy volunteers, both as a single dose, and as a daily (or twice-daily) dose for 14 days. Each cohort consisted of 8 subjects, with 6 receiving otenaproxesul and 2 receiving placebo. A total of 8 cohorts were studied in the single-dose study (25 mg, 75 mg, 150 mg, 300 mg, 500 mg, 1000 mg, 1500 mg and 2000 mg), and 3 cohorts in the multiple-dose study (250 and 750 once daily, and 750 mg bid (e.g., 1500 mg/day) for 14 days). All adverse events were recorded, and blood samples were drawn prior to and for at least 72 h after drug administration for measurement of otenaproxesul-derived naproxen levels. Routine cardiovascular, renal, hepatic and hematological biomarkers were monitored, along with clinical signs. […]
It is noted from the pharmacokinetic curves in FIG. 1 showing naproxen metabolite (M25) plasma levels following single dose crystalline otenaproxesul administrations in healthy subjects from the Phase 1 single ascending dose (SAD) study in Example 1, the time to attain maximal plasma concentration of M25 varies widely between 6 and 48 hours across the dosage spectrum. […] Therefore, while not being bound by theory, a single 2000 mg treatment is predicted to provide pain relief for 3 days and possibly to 5 days based upon measured and projected M25 plasma concentrations. […]

[2] = test system: osteoarthritis of the knee; experiment: Phase 2b study, change in WOMAC subscale scores in osteoarthritis of the knee; type: in vivo, human; details: for WOMAC pain, stiffness and DPDA subscale scores: Baseline to Day 14
Procedure: This study evaluated the efficacy of a 14-day dosing regimen of crystalline otenaproxesul at doses of 150 mg, 200 mg and 250 mg compared to placebo in reducing osteoarthritis knee pain (a chronic pain condition) as measured by changes in the post-treatment Western Ontario and McMaster Universities Osteoarthritis Index (WOMAC) subscale pain score relative to each patient's pretreatment baseline WOMAC assessment. In patients with bilateral knee osteoarthritis, the most painful knee (index knee) or if in both knees of equal pain, then 1 index knee was noted and has been used for the WOMAC assessments throughout the study. The three doses were selected based on state-of-the-art knowledge of efficacy and safety for otenaproxesul at the time of the trial.
This study was a double-blind, placebo-controlled Phase 2B study that explored 3 different doses (150 mg, 200 mg, and 250 mg) of orally administered crystalline otenaproxesul in male and female patients diagnosed with osteoarthritis of the knee. Patients were randomly assigned in a 2:2:1:1 allocation ratio to otenaproxesul 250 mg, 200 mg, 150 mg, or placebo.
Study visits occurred on Day 1, Day 4, and Day 14 of the 14-day treatment phase and included WOMAC evaluations, blood samples for thromboxane B2 TXB2 and pharmacokinetic (PK) testing. The safety of otenaproxesul was evaluated through monitoring for adverse events (AEs), changes in physical examinations, vital signs measurements, and clinical laboratory evaluations.
The efficacy of treatment with otenaproxesul was assessed by measuring the change in the WOMAC VAS version 3.1 subscale pain, stiffness, and difficulties performing daily activities (DPDA) scores after 14 days relative to each patient's pretreatment baseline WOMAC score.
All patients who received 1 dose of study drug (otenaproxesul or placebo) and had at least 1 post-baseline WOMAC pain subscale score observation were included in the primary population for the analysis of efficacy (modified-intent-to-treat population [mITT]). Patients who met the criteria for the primary efficacy analyses and had no major protocol violations that could have impacted the assessment of efficacy (per protocol population [PP]) were evaluated as a supportive analysis. The primary and secondary endpoints were analyzed using a maximum likelihood mixed model repeated measure (MMRM). The model included treatment, visit, baseline WOMAC pain score, and treatment-by-visit interaction as fixed effects, and patient as a random effect. Dose-response analysis was conducted by using a contrast statement to the least squares (LS) means on Day 14 between the dose levels of otenaproxesul and placebo. For patients who received rescue medication within 12 hours before an efficacy assessment, the assessments at that visit were disregarded and considered missing. Analysis of the WOMAC pain subscale score, including the MMRM analysis and descriptive summary, were also presented by sex (male, female) in a subgroup analysis.

[3] = Solubility in simulated intestinal fluid; type: physicochemical; details: 0.5 wt % SIF
Text: 1 compared to crystalline otenaproxesul in simulated intestinal fluid (SIF).

liver adverse effects = experiment: Clinical study of three crystalline otenaproxesul regimens, liver safety; type: in vivo, human; details: 1500 mg single; 1500 mg + 100 mg Days 2-5; 2000 mg single
Procedure: Data were collected over a 312-hour period at protocol-specified intervals. Sampling was most frequent during the first 2 hours post drug administration. Treatment regimens were (i) otenaproxesul single dose 1500 mg (Total 1500 mg); (ii) crystalline otenaproxesul Day 1 single dose 1500 mg plus 100 mg on Days 2-5 (Total 1900 mg) or (iii) crystalline otenaproxesul single dose 2000 mg (Total 2000 mg).

[4] = H2S release / formulation stability in simulated gastric fluid; details: SGF, 1 mg/ml, 37° C., 5% CO2
Procedure: Assay design: 1 mg of exemplary ASD no. 1 and crystalline otenaproxesul were weighed in separate glass vials. SGF was added to prepare a 1 mg/ml solution which was incubated at 37° C. with 5% CO2. 120 μl was removed at 0, 0.5, 1, 2, 3, 4 and 8 hrs and quenched in DPD and FeCl3 solutions. A blank and 10 mM stock was also analyzed. The methylene blue was analyzed using HPLC.
As H2S is volatile in the acidic form the calibration curve was not plotted, however H2S release was compared to T0.

- duration of plasma naproxen metabolite greater than about 10 μg/mL [1]: over 72 hours
SMILES: COc1ccc2cc([C@H](C)C(=O)Oc3ccc(C(N)=S)cc3)ccc2c1 [otenaproxesul, (S)-4-carbamothioylphenyl 2-(6-methoxynaphthalen-2-yl) propanoate]
- reduction in pain, stiffness and DPDA ([2]; 150 mg daily): positive reduction in pain, stiffness and DPDA
- actual mean change in WOMAC stiffness score, Baseline to Day 14 ([2]; 150 mg once daily, 95% CI −60.3, −36.6): −48.4 mm
- decrease in WOMAC DPDA score vs placebo ([2]; 150 mg, Day 14): not statistically significant
- decrease in WOMAC pain score vs placebo ([2]; 150 mg, Day 14): not statistically significant
- LS mean change in WOMAC stiffness score, Baseline to Day 14 ([2]; 200 mg once daily, 95% CI −62.6, −46.3): −54.4 mm
- LS mean change in WOMAC pain score, Baseline to Day 14 ([2]; 200 mg once daily, 95% CI −159.3, −120.6): −139.9 mm
- LS mean change in WOMAC DPDA score, Baseline to Day 14 ([2]; 200 mg once daily, 95% CI −502.9, 374.1 (so in the source)): −438.5 mm
- LS mean change in WOMAC stiffness score, Baseline to Day 14 ([2]; 250 mg once daily, 95% CI −63.5, −47.8): −55.6 mm
- LS mean change in WOMAC pain score, Baseline to Day 14 ([2]; 250 mg once daily, 95% CI −154.0, −116.6): -135 mm
- LS mean change in WOMAC DPDA score, Baseline to Day 14 ([2]; 250 mg once daily, 95% CI −475.1, −350.7): −412.9 mm
- patients having at least a 30% reduction in WOMAC pain scores ([2]; 250 mg, Day 14): 63.4%
- patients having at least a 50% reduction in WOMAC pain scores ([2]; 250 mg, Day 14): 43.5%
- WOMAC pain, stiffness and DPDA subscale scores [2]: clinically and statistically significant improvement
- decreases in WOMAC stiffness and DPDA scores ([2]; men, 200 mg, Day 14): reached statistical significance
- decreases in WOMAC pain, stiffness and DPDA scores vs placebo ([2]; women, 250 mg and 200 mg, Day 14): reached statistical significance

- solubility at 2 h [3]: 51 µg/mL (≈ 140 µM)
- Peak area of methylene blue (H2S release) ([4]; 0 hrs): 1.6
- Peak area of methylene blue (H2S release) ([4]; 0.5 hrs): 2.4
- Peak area of methylene blue (H2S release) ([4]; 1 hr): 2
- Peak area of methylene blue (H2S release) ([4]; 2 hrs): 2.3
- Peak area of methylene blue (H2S release) ([4]; 3 hrs): 1.8
- Peak area of methylene blue (H2S release) ([4]; 4 hrs): 1.9
- Peak area of methylene blue (H2S release) ([4]; 8 hrs): 2.4
SMILES: COc1ccc2cc([C@H](C)C(=O)Oc3ccc(C(N)=S)cc3)ccc2c1 [crystalline otenaproxesul]
- WOMAC pain, stiffness and DPDA subscale scores [2]: clinically and statistically significant improvement
- liver adverse effects (liver adverse effects): No subjects in any of the three treatment arms exhibited any liver adverse effects
